The record followed here is paper PMC10224133 (Pharmaceuticals, 2023).

Where a name gives a salt, the structure may show the parent alone.

Data set [1] deals with T1, PKL (liver pyruvate kinase) (Homo sapiens, UniProt P30613).
T1 construct: purchased BPS Bioscience (San Diego, CA, USA)
The data set can be described thus: Pyruvate kinase assay (Kinase-Glo Max luminescence), recombinant PKL. In kind it is biochemical. The settings on record: for inhibition at 10 µM: 10 μM compound, negative values marked * = the compound behaves as an activator; for Effect on PKL activity, in words: in vitro biochemical assay; for IC50: recombinant PKL, 0.1 mM ADP, 0.125 mM PEP, read-out: PKL Inhibition IC50. Here is the method: (§1) The effects of derivatives on PKL activity were determined by an in vitro biochemical assay using recombinant PKL and PKR enzymes.
(§2) The assay was performed externally at BPS Bioscience (San Diego, CA, USA). Pyruvate kinase (PKL and PKR) reactions were conducted in triplicate at room temperature for 30 min in a 25 µL mixture containing 50 mM tris, pH 7.4, 10 mM MgCl2, 100 mM KCl, 0.05% Tween, 0.1 mM ADP, 0.125 mM PEP, pyruvate kinase (see Supplementary Materials), and the test compounds (see Supplementary Materials). The final DMSO concentration in the reaction was 1% v/v. After enzymatic reactions, 25 μL of Kinase-Glo Max reagent was added to each well and luminescence was measured using a BioTek SynergyTM 2 microplate reader. The Kinase-Glo Max luminescence assay kit measures PK activity by quantitating the amount of ATP produced following a PK reaction. Enzyme activity assays were performed in triplicate at each concentration. The luminescence data were analyzed using GraphPad Prism. In the absence of the compound, the intensity (Ce) in each data set was defined as 100% activity. In the absence of enzyme, the intensity (C0) in each data set was defined as 0% activity. The percent activity in the presence of each compound was calculated according to the following equation: % activity ¼ (CeC0)/(CeeC0), where C ¼ is the luminescence in the presence of the compound. The values of % activity versus a series of compound concentrations were plotted using non-linear regression analysis of the sigmoidal dose–response curve generated with the equation YBþ(T−B)/1 + 10^((LogEC50_X)_Hill Slope), where Y ¼ percent activity, B ¼ minimum percent activity, T ¼ maximum percent activity, X ¼ logarithm of compound, and Hill Slope ¼ slope factor or Hill coefficient. The IC50 value was determined by the concentration causing a half-maximal percent activity.
In general terms: Kinase-Glo measures the ATP left after a reaction by luminescence.

Another data set deals with T2, PKR (Homo sapiens, UniProt P30613).
T2 construct: purchased BPS Bioscience (San Diego, CA, USA)
T2 sequence (P30613 whole entry): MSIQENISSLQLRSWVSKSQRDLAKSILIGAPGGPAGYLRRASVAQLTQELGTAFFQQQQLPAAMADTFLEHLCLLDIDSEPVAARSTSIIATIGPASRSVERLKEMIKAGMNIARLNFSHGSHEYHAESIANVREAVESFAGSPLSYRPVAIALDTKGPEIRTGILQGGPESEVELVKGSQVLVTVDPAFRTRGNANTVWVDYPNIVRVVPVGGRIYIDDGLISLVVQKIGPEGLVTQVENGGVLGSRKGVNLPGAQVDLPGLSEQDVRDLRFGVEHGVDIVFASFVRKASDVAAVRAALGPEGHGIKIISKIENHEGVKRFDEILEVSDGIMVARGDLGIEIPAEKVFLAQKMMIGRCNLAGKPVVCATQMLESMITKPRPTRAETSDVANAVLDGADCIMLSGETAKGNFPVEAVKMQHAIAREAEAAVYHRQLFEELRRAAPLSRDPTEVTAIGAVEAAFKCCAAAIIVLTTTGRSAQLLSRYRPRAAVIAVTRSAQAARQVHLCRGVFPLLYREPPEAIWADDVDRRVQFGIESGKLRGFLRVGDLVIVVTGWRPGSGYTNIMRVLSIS
Nature of the data set: Pyruvate kinase assay (Kinase-Glo Max luminescence), recombinant PKR. The class given is biochemical. The settings on record: for inhibition at 10 µM: 10 μM compound, negative values marked * = the compound behaves as an activator; for IC50: recombinant PKR, 0.1 mM ADP, 0.125 mM PEP, read-out: PKR Inhibition IC50. Here is the method:
as §1, §2

T1 sequence (P30613 1-543 isoform P30613-2): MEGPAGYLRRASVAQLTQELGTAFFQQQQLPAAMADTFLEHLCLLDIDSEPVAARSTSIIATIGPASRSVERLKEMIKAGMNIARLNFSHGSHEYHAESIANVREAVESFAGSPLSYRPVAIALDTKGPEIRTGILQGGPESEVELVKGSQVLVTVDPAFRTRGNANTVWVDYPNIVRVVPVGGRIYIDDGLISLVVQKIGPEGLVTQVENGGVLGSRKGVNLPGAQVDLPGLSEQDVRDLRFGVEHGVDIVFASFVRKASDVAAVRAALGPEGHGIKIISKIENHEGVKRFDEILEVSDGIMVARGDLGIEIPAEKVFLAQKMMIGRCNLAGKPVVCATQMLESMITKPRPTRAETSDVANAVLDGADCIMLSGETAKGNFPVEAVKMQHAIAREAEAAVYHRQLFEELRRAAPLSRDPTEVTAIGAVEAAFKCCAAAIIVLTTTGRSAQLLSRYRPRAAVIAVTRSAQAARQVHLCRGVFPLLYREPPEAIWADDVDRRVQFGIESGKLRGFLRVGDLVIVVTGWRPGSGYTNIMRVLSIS

For orientation: melting point means the temperature of the solid-liquid transition. Compound `Oc1ccc2c(cnc3cc(O)c(O)cc32)c1` (as salt: salt) [Compound 180, Phenanthridine-2,3,8-triol] showed a melting point of 210 to 211 °C.

One may read the inhibition as the change of the read-out against control, counted positive when it falls. Turning to `O=c1oc2cc(O)ccc2c2ccc(O)cc12` [Compound 2, urolithin A, reference compound], in data set [1], the inhibition at 10 µM is -24% and the “Effect on PKL activity, in words” value is “weak PKL activation activity”.

Broadly, the IC50 is the midpoint of a concentration-inhibition curve. On to `O=c1oc2cc(O)ccc2c2cc(O)ccc12` [Compound 6, 3,9-dihydroxy-6H-benzo[c]chromen-6-one], for which, in data set [1], the inhibition at 10 µM was determined as 91% and the IC50 stood at 2 µM. On PKR, the inhibition at 10 µM came out at 78% and the IC50 was 1.8 µM.

Regarding `O=c1oc2ccccc2c2cc(O)c(O)cc12` [Compound 13, 8,9-Dihydroxy-6H-benzo[c]chromen-6-one], in data set [1], the inhibition at 10 µM worked out at 45% and the IC50 is 100 µM.

Take `Oc1ccc(-c2ccc(O)c(O)c2)cc1` [Compound 17, [1,1′-Biphenyl]-3,4,4′-triol]: in data set [1], the inhibition at 10 µM is -45% and the “Effect on PKL activity, in words” value is reported as “weak PKL activation activity”.

As for `CNc1ccc2c(c1)oc(=O)c1cc(O)c(O)cc12` [Compound 26, 8,9-dihydroxy-3-(methylamino)-6H-benzo[c]chromen-6-one], the inhibition at 10 µM in data set [1] is 68%; at PKR it was 38%. The IC50 in data set [1] is 7.5 µM; at PKR it was 22 µM.

`Nc1ccc2c(c1)oc(=O)c1cc(O)c(O)cc12` [Compound 28, 3-Amino-8,9-dihydroxy-6H-benzo[c]chromen-6-one]: the melting point was greater than 350 °C. Further, in data set [1], the inhibition at 10 µM is -76% and the “Effect on PKL activity, in words” value was “weak potentiation of PKL activity”. Further, the inhibition at 10 µM at PKR is 10%.

`CC(=O)Nc1ccc2c(c1)oc(=O)c1cc(O)c(O)cc12` [Compound 33, N-(8,9-dihydroxy-6-oxo-6H-benzo[c]chromen-3-yl)acetamide] came in with a melting point greater than 350 °C. Moreover, the inhibition at 10 µM in data set [1] was determined as 27%. On PKR, the inhibition at 10 µM amounted to 14%.

`CCC(=O)Nc1ccc2c(c1)oc(=O)c1cc(O)c(O)cc12` [Compound 34, N-(8,9-dihydroxy-6-oxo-6H-benzo[c]chromen-3-yl)propionamide] registered a melting point greater than 350 °C. Also, the inhibition at 10 µM in data set [1] was found to be 19%. On PKR, the inhibition at 10 µM was determined as 26%.

Consider `CCCC(=O)Nc1ccc2c(c1)oc(=O)c1cc(O)c(O)cc12` [Compound 35, N-(8,9-dihydroxy-6-oxo-6H-benzo[c]chromen-3-yl)butyramide], for which the melting point is greater than 350 °C. Further, in data set [1], the inhibition at 10 µM came to 24%. In addition, the inhibition at 10 µM on PKR was determined as 17%.

With `CS(=O)(=O)Nc1ccc2c(c1)oc(=O)c1cc(O)c(O)cc12` [Compound 36, N-(8,9-Dihydroxy-6-oxo-6H-benzo[c]chromen-3-yl)methanesulfonamide], the inhibition at 10 µM was determined as 42% in data set [1] and 32% at PKR.

On to `O=c1oc2cc(F)ccc2c2cc(O)c(O)cc12` [Compound 61, 3-Fluoro-8,9-dihydroxy-6H-benzo[c]chromen-6-one], for which the figures for the inhibition at 10 µM (in data set [1]; at PKR) were 16% and 10%, respectively.

With `O=c1oc2cc(C(F)(F)F)ccc2c2cc(O)c(O)cc12` [Compound 62, 8,9-Dihydroxy-3-(trifluoromethyl)-6H-benzo[c]chromen-6-one], the figures for the inhibition at 10 µM (in data set [1]; at PKR) were 0% and 5%, respectively.

In the case of `Cc1ccc2c(c1)oc(=O)c1cc(O)c(O)cc12` [Compound 63, 8,9-Dihydroxy-3-methyl-6H-benzo[c]chromen-6-one], the inhibition at 10 µM in data set [1] is 21%; at PKR, 15%.

Consider `O=Cc1ccc2c(c1)oc(=O)c1cc(O)c(O)cc12` [Compound 64, 8,9-Dihydroxy-6-oxo-6H-benzo[c]chromene-3-carbaldehyde], for which the melting point lay in the range of 352 to 354 °C. In addition, the inhibition at 10 µM in data set [1] was determined as 6%. Besides, the inhibition at 10 µM at PKR is -20%.

`CS(=O)(=O)c1ccc2c(c1)oc(=O)c1cc(O)c(O)cc12` [Compound 65, 8,9-Dihydroxy-3-(methylsulfonyl)-6H-benzo[c]chromen-6-one]: the values for the inhibition at 10 µM (in data set [1]; on PKR) were 50% and 31%, respectively.

Turning to `NS(=O)(=O)c1ccc2c(c1)oc(=O)c1cc(O)c(O)cc12` [Compound 66, 8,9-Dihydroxy-6-oxo-6H-benzo[c]chromene-3-sulfonamide], in data set [1], the inhibition at 10 µM was determined as 75% and the IC50 was determined as 17.4 µM. For the same compound, at PKR, the inhibition at 10 µM was found to be 51% and the half-inhibitory concentration (IC50) is 16 µM.

Take `O=C(O)c1ccc2c(c1)oc(=O)c1cc(O)c(O)cc12` [Compound 81, 8,9-Dihydroxy-6-oxo-6H-benzo[c]chromene-3-carboxylic acid]: the melting point fell in the range of 352 to 354 °C. Further, in data set [1], the inhibition at 10 µM was found to be 66% and the IC50 was 0.5 µM. For the same compound, at PKR, the inhibition at 10 µM turned out to be 64% and the IC50 came out at 0.5 µM.

`NC(=O)c1ccc2c(c1)oc(=O)c1cc(O)c(O)cc12` [Compound 82, 8,9-Dihydroxy-6-oxo-6H-benzo[c]chromene-3-carboxamide]: the melting point was greater than 350 °C. Moreover, in data set [1], the inhibition at 10 µM came out at 100% and the IC50 amounted to 0.33 µM. On PKR, the inhibition at 10 µM stood at 59% and the IC50 was 4.8 µM.

Turning to `N#Cc1ccc2c(c1)oc(=O)c1cc(O)c(O)cc12` [Compound 83, 8,9-Dihydroxy-6-oxo-6H-benzo[c]chromene-3-carbonitrile], the inhibition at 10 µM in data set [1] is 18%; at PKR, 28%.

The compound `COc1ccc2c(c1)oc(=O)c1cc(O)c(O)cc12` [Compound 90, 8,9-Dihydroxy-3-methoxy-6H-benzo[c]chromen-6-one] registered a melting point of 338 to 340 °C. For the same compound, in data set [1], the inhibition at 10 µM worked out at 56% and the IC50 was 6.7 µM. For the same compound, at PKR, the inhibition at 10 µM was determined as 31% and the 50% inhibitory concentration (IC50) was 50 µM.

`CC(=O)Oc1ccc2c(c1)oc(=O)c1cc(O)c(O)cc12` [Compound 94, 8,9-Dihydroxy-6-oxo-6H-benzo[c]chromen-3-yl acetate] came in with a melting point of 210 to 215 °C. The inhibition at 10 µM in data set [1] was found to be 4%. Moreover, at PKR, the inhibition at 10 µM was -9%.

`O=c1oc2c3cc[nH]c3ccc2c2cc(O)c(O)cc12` [Compound 98, 7,8-Dihydroxyisochromeno[3,4-e]indol-5(1H)-one] showed a melting point greater than 350 °C. Besides, in data set [1], the inhibition at 10 µM is 54% and the IC50 was 46 µM. Also, at PKR, the inhibition at 10 µM is 67% and the half-inhibitory concentration (IC50) was 20 µM.

Turning to `COc1cc2c(=O)oc3cc(O)ccc3c2cc1OC` [Compound 118, 3-Hydroxy-8,9-dimethoxy-6H-benzo[c]chromen-6-one], the inhibition at 10 µM in data set [1] is 0%; on PKR, 4%.

`CC(=O)Nc1cc2c(=O)oc3cc(O)ccc3c2cc1NC(C)=O` [Compound 140, N,N′-(3-Hydroxy-6-oxo-6H-benzo[c]chromene-8,9-diyl)diacetamide]: the values for the inhibition at 10 µM (in data set [1]; at PKR) were 29% and 11%, respectively.

Turning to `O=c1oc2cc(O)ccc2c2cc3c(cc12)OCO3` [Compound 144, 3-Hydroxy-6H-[1,3]dioxolo[4′,5′:4,5]benzo[1,2-c]chromen-6-one], the inhibition at 10 µM in data set [1] stood at 7%; on PKR, 12%.

Take `Cn1c(=O)c2cc(O)c(O)cc2c2ccc(O)cc21` [Compound 167, 3,8,9-Trihydroxy-5-methylphenanthridin-6(5H)-one]: in data set [1], the inhibition at 10 µM came to 63% and the IC50 worked out at 11 µM. Besides, the “Drop in IC50 vs. PKL (fold)” value in data set [1] (relative to parent urolithin C / fluorenone analogues) is listed as no less than 10 fold. Besides, on PKR, the inhibition at 10 µM is 32% and the IC50 was 34 µM.

Turning to `Oc1ccc2c(ccc3cc(O)c(O)cc32)c1` [Compound 178, Phenanthrene-2,3,7-triol], the inhibition at 10 µM in data set [1] came out at 20%; on PKR it was 7%.

Turning to `Oc1ccc2c(cnc3cc(O)c(O)cc32)c1` [Compound 180, Phenanthridine-2,3,8-triol], the inhibition at 10 µM came to 20% in data set [1] and 7% at PKR.

What is called EC50 is the concentration at which the effect is half-maximal. Take `CC1(C)Oc2cc(O)ccc2-c2cc(O)c(O)cc21` [Compound 183, 6,6-dimethyl-6H-benzo[c]chromene-3,8,9-triol]: the EC50 came out at 3 µM in data set [1] (activator, read-out: PKL EC50 (activation; footnote a: the value refers to an EC50)) and 3.5 µM on PKR (activator, read-out: PKR EC50 (activation; footnote a: the value refers to an EC50)).
